Activity calls are given as the source filed them. How the calls were made is not given here.
Molecular target: Nuclear receptor coactivator 1 (Homo sapiens) (UniProt Q15788)
Experiment: SRC1 (NCOA1) coactivator inhibitors, dose response, cell-based, luciferase reporter, luminescence (AID 602235);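 further: cells transfected with pGL4.31 reporter plus pBIND-SRC1 vector; potency is for inhibitors that lower SRC1 reporter luminescence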

Chain of Nuclear receptor coactivator 1 (Homo sapiens) (Q15788 whole entry, looked up): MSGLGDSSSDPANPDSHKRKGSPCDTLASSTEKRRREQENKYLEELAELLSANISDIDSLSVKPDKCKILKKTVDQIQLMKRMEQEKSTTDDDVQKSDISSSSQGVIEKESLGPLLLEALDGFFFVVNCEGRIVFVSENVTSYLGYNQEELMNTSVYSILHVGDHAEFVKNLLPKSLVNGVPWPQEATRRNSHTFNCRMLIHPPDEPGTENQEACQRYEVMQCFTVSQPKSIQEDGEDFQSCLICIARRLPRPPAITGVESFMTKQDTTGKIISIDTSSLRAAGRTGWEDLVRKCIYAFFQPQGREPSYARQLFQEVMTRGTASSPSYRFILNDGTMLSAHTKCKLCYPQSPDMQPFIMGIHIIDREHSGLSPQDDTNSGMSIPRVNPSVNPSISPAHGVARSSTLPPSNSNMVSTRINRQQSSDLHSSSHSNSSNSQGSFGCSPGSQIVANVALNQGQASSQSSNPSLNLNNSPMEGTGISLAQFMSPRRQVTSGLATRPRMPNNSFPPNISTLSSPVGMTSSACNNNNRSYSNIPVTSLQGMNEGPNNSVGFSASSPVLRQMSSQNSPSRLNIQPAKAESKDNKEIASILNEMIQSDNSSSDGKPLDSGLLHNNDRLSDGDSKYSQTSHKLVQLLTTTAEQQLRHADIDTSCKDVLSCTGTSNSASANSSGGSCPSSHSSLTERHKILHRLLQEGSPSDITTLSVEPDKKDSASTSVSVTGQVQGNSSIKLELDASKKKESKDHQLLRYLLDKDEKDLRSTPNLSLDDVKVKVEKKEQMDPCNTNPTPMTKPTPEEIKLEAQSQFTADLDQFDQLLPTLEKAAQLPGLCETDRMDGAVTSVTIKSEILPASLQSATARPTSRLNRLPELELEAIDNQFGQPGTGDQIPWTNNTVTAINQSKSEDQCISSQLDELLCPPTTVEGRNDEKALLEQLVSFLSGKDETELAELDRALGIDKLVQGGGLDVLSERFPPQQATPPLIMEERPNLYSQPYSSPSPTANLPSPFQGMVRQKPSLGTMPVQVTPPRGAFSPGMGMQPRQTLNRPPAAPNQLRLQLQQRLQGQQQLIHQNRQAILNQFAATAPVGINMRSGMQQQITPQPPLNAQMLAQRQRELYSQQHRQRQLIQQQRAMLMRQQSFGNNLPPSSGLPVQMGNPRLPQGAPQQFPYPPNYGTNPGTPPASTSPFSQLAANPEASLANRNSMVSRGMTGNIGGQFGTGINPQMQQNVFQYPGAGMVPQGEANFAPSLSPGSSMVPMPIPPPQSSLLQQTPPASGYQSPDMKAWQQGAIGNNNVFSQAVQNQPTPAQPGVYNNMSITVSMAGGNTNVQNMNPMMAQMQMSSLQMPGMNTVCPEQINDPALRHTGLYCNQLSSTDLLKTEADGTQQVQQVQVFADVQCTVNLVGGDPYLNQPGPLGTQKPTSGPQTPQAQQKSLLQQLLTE

SMILES | IC50
CCc1ccc(-c2nc(CSCC(=O)NCc3ccco3)c(C)o2)cc1 | > 35.9 µM (inactive)
Cc1ccc2occ(/C=N/NC(=O)[C@@H](N)Cc3ccccc3)c(=O)c2c1 | 8.08 µM
C=CCOc1ccc(/C=C2\SC(=S)N(CCC(=O)O)C2=O)cc1 | > 35.9 µM (inactive)
Cc1cccc(C)c1-n1nnnc1C(c1cccs1)N1CCC2(CC1)C(=O)NCN2c1ccccc1 (stereo unspecified) | inactive
Nc1ncccc1C(=O)OCC(=O)N1CCN(S(=O)(=O)c2ccc(Cl)cc2)CC1 | inactive
CC1(C)Cc2c(ccc3ccccc23)C(=O)N1 | inactive
CCCCC(=O)Nc1cccn2ncnc12 | inactive
COc1ccc(/C=C2/SC(=S)N(CCC(=O)O)C2=O)cc1 | > 35.9 µM (inactive)
CN(C)c1ccc(Nc2ncnc3ccc(Br)cc23)cc1 | 9.96 µM
CC(C)Cn1c(N)c(C(=O)COC(=O)c2cc3ccccc3cc2O)c(=O)n(C)c1=O | > 35.9 µM (inactive)
COc1ccc2c(C#N)c3ccccn3c2c1 | inactive
COc1ccc(-c2ncncc2-c2ccccc2)c(O)c1 | inactive
COc1ccccc1/C=C\C(=O)NCC(=O)N/N=C/c1cccc(OC)c1O | inactive
CCc1c(C)nc2c(C)cccc2c1SCCC#N | > 35.9 µM (inactive)
CCCc1cc(C(=O)N(C)CC(=O)Nc2ccc(OCC)c(OCC)c2)sc1C | > 35.9 µM (inactive)
COc1cc2c(cc1OC)C(NC(=O)C(F)(F)F)CNC2=O (stereo unspecified) | 6.97 µM
O=[N+]([O-])c1ccc2c(c1)-c1ccccc1C2=NO | inactive
CCOc1cccc(/C=N/NC(=O)c2cc(C3CC3)[nH]n2)c1O | 8.38 µM
Cc1ccc(/C=C2\SC(=S)N(CCCC(=O)NC3CCCC3)C2=O)cc1 | 3.37 µM
Oc1ccc(C=NNc2ccccn2)c(O)c1 | inactive
C=CCn1c(O)c(C(C)=NCc2cc(OC)cc(OC)c2)c(=O)[nH]c1=O | inactive
CN(C)C=Nc1c(C(=O)c2ccccc2)sc2nccc(N(C)C)c12 | 8.53 µM
COc1cccc(NC(=O)CN(C)CC(=O)Nc2ccc(Cl)cc2[N+](=O)[O-])c1 | inactive
CN(Cc1cnc2nc(N)nc(N)c2n1)c1ccc(C(=O)N[C@@H](CCC(=O)O)C(=O)O)cc1 | > 35.9 µM (inactive)
O=C(OC(c1ccccc1)c1nccc2ccccc12)c1ccccc1 (stereo unspecified) | > 11.9 µM (inactive)
C=CCNc1ncnc2ccc(Br)cc12 | 6.79 µM

SMILES | IC50
Cc1ccc(/C=C2/SC(=S)N(CCCC(=O)Nc3ccc(O)cc3)C2=O)cc1 | > 35.9 µM (inactive)
Cc1ccc(S(=O)(=O)Nc2c(NC3CCCCC3)c3ccccc3oc2=O)c(C)c1 | > 35.9 µM (inactive)
COc1ccc(-n2cnc(N)c2C(=O)c2cccc([N+](=O)[O-])c2)cc1 | inactive
COC(=O)c1cccc2c1-c1ccccc1/C2=N/O | 9.71 µM
Cc1ccc(NC(=O)NC2CC(=O)N(c3ccc4c(c3)OCCO4)C2)cc1C (stereo unspecified) | 6 µM
CC1CC(C)C(=NNC(N)=O)C(C(O)CC2CCC(=O)NC2=O)C1 (stereo unspecified) | 8.57 µM
NC(=O)c1cc(Sc2ccccc2)nc2ccccc12 | 7.5 µM
Cc1cc(/C=C2\Cc3ccccc3C2=O)c(C)n1-c1ccccc1 | > 35.9 µM (inactive)
Cn1nc(C(F)(F)F)c(C#N)c1N1CCN(c2ccc(F)cc2)CC1 | 9.32 µM
CCc1ccc(/C=C2\SC(=S)N(CCCC(=O)NCCCN3CCOCC3)C2=O)cc1 | 6.27 µM
Cc1ccc(S(=O)(=O)N2[C@@H](c3ccc(C(C)(C)C)cc3)C(C(=O)O)=CC[C@H]2c2ccc(Cl)cc2)cc1 | inactive
COc1ccccc1NS(=O)(=O)c1cccc(NC(=O)c2cncc(Br)c2)c1 | inactive
COc1cccc(/C=N/NC(=O)CNC(=O)C2COc3ccccc3O2)c1O (stereo unspecified) | inactive
O=C(N/N=C/c1ccc(O)cc1O)/C(=C/c1ccccc1)CCO | inactive
O=C(O)c1ccccc1C(=O)Nc1ccc(Oc2cccc3ccccc23)cc1 | > 35.9 µM (inactive)
COc1ccc(C(O)(C(C)C)C(CN2CCOCC2)c2ccc(Cl)cc2)cc1 (stereo unspecified) | inactive
CCOc1ccc(/C=C2\SC(=S)N(CCCC(=O)NCCCN3CCOCC3)C2=O)cc1 | > 12 µM (inactive)
CCCCCOc1ccc(/C=C/c2c([N+](=O)[O-])c(=O)n(C)c(=O)n2C)cc1 | 9.08 µM
COc1cc2c3c([nH]c2cc1F)C(=O)NCC3 | 9.54 µM
Cc1nn(CC(=O)N2CCN(c3cccc(C(F)(F)F)c3)CC2)c(=O)c2cccn12 | inactive
S=C(c1ccc(-c2ccccc2)cc1)N1CCOCC1 | > 35.8 µM (inactive)
CCN1CCN(C(=S)c2ccc(-c3ccccc3)cc2)CC1 | > 35.9 µM (inactive)
Cc1nn(C(C)(C)C)c(C)c1/C=N/OC(=O)Nc1ccc(Cl)c(Cl)c1 | inactive
CN1CCN(c2cccc3c2C(=O)c2ccccc2C3=O)CC1 | > 35.9 µM (inactive)
CC1CCN(C(=O)c2scc3c2OCCO3)CC1 | inactive
O=[N+]([O-])c1ccc(N(CCO)CCO)c2c1no[n+]2[O-] | inactive

SMILES | IC50
Cc1ccc(N=c2c([N+](=O)[O-])nn(-c3ccc4c(c3)OCCO4)n2O)cc1F | inactive
COc1cc(OC)c2cc(C(=O)N/N=C/c3cccc(OC)c3O)[nH]c2c1 | inactive
Cc1ccc(NC(=O)CCC(=O)N/N=C/c2ccc(O)cc2O)cc1 | inactive
COc1ccc(OC)c(/C=C2\NC(=O)NC2=O)c1 | 7.42 µM
N#Cc1cc2ccncc2c2ccccc12 | > 35.9 µM (inactive)
Cc1c2ccncc2cc2c1[nH]c1ccccc12 | > 35.9 µM (inactive)
COc1ccc(Nc2ncnc3ccc(Br)cc23)c(OC)c1 | 2.44 µM
CC(C)n1c(SCC(=O)Nc2nc3c(s2)CCCC3)nc2c1c(=O)n(C)c(=O)n2C | inactive
CN(C)c1ccc(/C=C/c2nc3ccccc3s2)cc1 | inactive
Cc1nc2c(-c3ccc(Cl)cc3)c(C)[nH]n2c(=O)c1Cc1ccccc1 | 9.38 µM
O=C(NC(=S)Nc1ccc(N2CCN(C(=O)c3ccccc3)CC2)cc1)c1cccs1 | inactive
c1ccc(-c2csc3ncnc(NCCN4CCOCC4)c23)cc1 | inactive
CCOC(=O)CSc1cc(-c2ccccc2)nc2ncnn12 | > 35.9 µM (inactive)
Cc1cc(C)nc(SCc2ccc(C(=O)N/N=C/c3cccc(O)c3O)cc2)n1 | 5.18 µM
Cc1nc2c(-c3ccc(F)cc3)cnn2c(N)c1-c1ccccc1 | inactive
O=[N+]([O-])c1cccc2c1ccc1ncccc12 | 9.46 µM
CCOC(=O)c1c(NC(=O)C(C)N2CCN(C(=O)c3ccco3)CC2)sc2c1CCCC2 (stereo unspecified) | inactive
CCCCC(CC)COCCCN=Cc1c(O)[nH]c(=S)[nH]c1=O (stereo unspecified) | inactive
N#Cc1c(-c2ccccc2)c(C#N)c2nc3ccccc3n2c1N | > 35.9 µM (inactive)
Nc1ccn([C@@H]2O[C@H](CO)[C@@H](O)C2O)c(=O)n1 (stereo partly specified) | inactive
Cc1c(C(=O)N/N=C/C(C)C)[nH]c2ccc([N+](=O)[O-])cc12 | inactive
COc1ccc(Oc2nc3c(c(=O)n(C)c(=O)n3C)n2C)cc1 | inactive
Cc1noc(/C=C/c2ccco2)c1S(=O)(=O)N1CCC(C(=O)Nc2ccc(Cl)cn2)CC1 | > 35.9 µM (inactive)
O=C(CCC1CCCC1)Nc1ccc(C(=O)NCc2cccnc2)cc1 | 3.87 µM
